The record followed here is paper PMC7539967, “The Plasmodium falciparum eIK1 kinase (PfeIK1) is central for melatonin synchronization in the human malaria parasite. Melatotosil blocks melatonin action on parasite cell cycle” (Journal of Pineal Research, 2020).

Data set [1] has as its system Plasmodium falciparum 3D7. Nature of the data set: In vitro growth assay and flow cytometry analysis (72 h), 3D7. Type of data set: cell-based. The following applies: for IC50: Plasmodium falciparum. How it is done:
(§1) Red blood cells infected with P. falciparum 3D7 or PfeIK1^‐ (iRBC) with 0.3 % initial parasitemia and 1% hematocrit were incubated with different concentrations of compounds Tripbenz (4), Triptosil (5), Triptiofen (6), Tripfuroila (7), and Tripcicloexil (8) ranging from 0.107 to 110 µM, and compounds Melatobenz (9), Melatotosil (10), Melatofuroila (11), and Melatocicloexil (12) ranging from 0.1 to 100 µM for 72 hours at 37°C under mixture of gases. The control group was treated with solvent dimethyl sulfoxide (DMSO) (v/v), with the highest concentration of solvent 0.14%. Chloroquine was used as positive control with concentrations ranging from 0.244 to 250 nM. Parasitemia was determined from dot plots (side scatter versus fluorescence) of at least 10^3 cells acquired on a FACSCalibur flow cytometer using […] software (Becton Dickinson) or an Accuri C6 flow cytometer (Becton Dickinson). Initial gating was carried out with unstained, uninfected erythrocytes to account for erythrocyte auto fluorescence. The concentration responsible for 50% inhibition (IC50) was determined from the compound concentration‐response curve determined with the software GraphPad Prism 6.
(§2) For assays with antimalarials, iRBC were incubated with different concentrations of Atovaquone ranging from 0.02 to 24 nM, or Artemisinin 0.15‐160 nM.
(§3) After 72 hours, iRBC were stained with nucleic acid marker SYBR Green I (1X) (Invitrogen) and mitochondria marker based on membrane potential MitoTracker Deep Red (50 nM) (Invitrogen), and incubated for 20 minutes at 37°C. Final parasitemia was obtained by flow cytometer using a BD Accuri C6 Flow Cytometer, collecting 10^4 cells. Parasitemia was determined by dot plots using FlowJo 5 software.
(§4) At least three independent experiments were performed in triplicate to calculate the IC50 values for each drug.
For orientation: Flow cytometry measures light scatter and fluorescence of single cells or particles in a stream.

For data set [2], the system named is P. falciparum PfeIK1^‐. The experiment in a line: In vitro growth assay and flow cytometry analysis (72 h), PfeIK1 knockout. The class given is cell-based, Plasmodium falciparum. Conditions: for IC50: Plasmodium falciparum. How it is done:
as §1, §2, §3, §4

The test system of data set [3] is Plasmodium falciparum 3D7. The experiment in a line: Effect of indole compounds in parasitemia (48 h), 3D7. The class given is cell-based. The following applies: 3D7, 500 nM compound; for activity at 0.5 µM: Plasmodium falciparum, read-out: final parasitemia normalized to control. How it is done:
(§5) Red blood cells infected (iRBC) with 3D7 or PfeIK1^‐ (iRBC) with 1% initial parasitemia and 2% hematocrit were incubated with 500 nM of the synthetic indole compounds or 100 nM Melatonin for 48 hours at 37°C under mixture of gases. ^12 The control group received 0.0013% of solvent dimethyl sulfoxide (DMSO).
(§6) After 48 hours, iRBC were double‐stained ^34 with nucleic acid marker SYBR Green I (1X) and mitochondria marker, based on membrane potential, MitoTracker Deep Red (50 nM), and incubated for 20 minutes at 37°C.
(§7) Final parasitemia was obtained by flow cytometer using an Accuri C6 flow cytometer (Becton Dickinson), collecting 10^4 cells. Parasitemia was determined by dot plots using FlowJo 5 software.

The subject of data set [4] is P. falciparum PfeIK1^‐. Nature of the data set: Effect of compounds on melatonin action on parasitemia, PfeIK1 knockout. The class given is cell-based, Plasmodium falciparum. The following applies: 500 nM compound + 100 nM melatonin, 48 h, normalized to control. Here is the method: (§8) To evaluate the effect of the compounds on melatonin action on parasitemia, iRBC were incubated with 500 nM of compounds for 10 minutes and then along with 100 nM of melatonin for 48 hours at 37°C under mixture of gases.
as §6, §7

For data set [5], the system named is P. falciparum PfeIK1^‐. The experiment in a line: Effect of indole compounds in parasitemia (48 h), PfeIK1 knockout. Type of data set: cell-based. The following applies: Plasmodium falciparum, read-out: final parasitemia normalized to control. How it is done: as §5, §6, §7
Data set [6] deals with Plasmodium falciparum 3D7. The experiment in a line: Effect of compounds on melatonin action on parasitemia, 3D7. The following applies: 3D7, 500 nM compound + 100 nM melatonin, 48 h. The class given is cell-based. Here is the method: as §8, §6, §7
Data set [7] concerns P. falciparum GCaMP3 parasites. Nature of the data set: Calcium assay in transgenic PfGCaMP3 parasites. The class given is cell-based, Plasmodium falciparum. The following applies: 500 nM. Here is the method:
Calcium assays were performed using the transgenic P. falciparum GCaMP3 parasites. ^37 PfGCaMP3 cultures were synchronized at least three times with 5% sorbitol before starting the experiments, and parasitemia was maintained between 5% and 8%. PfGCaMP3 parasites were cultivated with 10 nM/mL of WR for selection. Parasites were isolated with saponin (0.016%) and collected by centrifugation 8000 rpm, subsequently washed twice with buffer M, and allowed to settle in a four‐well plate for microscope coated with poly‐L‐lysine for 30 minutes at 37°C with 5% CO2 in buffer M ([…], 5.4 mM KCl, 0.8 mM MgSO4, 5.5 mMD‐glucose, 50 mM MOPS, and 2 mM CaCl2, pH 7.2). The compounds used for measuring calcium assays were as follows: Melatotosil and Triptiofen solubilized in DMSO.
Images were captured using a Nikon Eclipse Ti2 inverted microscope with FITC filter. Images were collected every 10 seconds for 5 minutes, with NIS‐Elements Ar 5.11.01 from Nikon using 60× lens. All experiments were performed at least three independent times in duplicates.

In data set [8] the test system is Human Embryonic Kidney cells (HEK293). The experiment in a line: Cytotoxicity Assay in HEK293 cells (MTT). Type of data set: cell-based. Conditions: 0.107 to 110 µM, 72 h. How it is done: To evaluate toxicity of the new indole compounds in mammalian cells, Human Embryonic Kidney cells (HEK293) were maintained in 75 cm^2 culture flasks (Greiner Bio‐One) at 37°C, 5%CO2 in […] (DMEM), supplemented with 10% fetal bovine serum, NaHCO33.7 g/L (Sigma), 100 U/mL penicillin/, and 100 μg/mL streptomycin in monolayers.
Cells were plated in flat‐bottom 96‐well plates in a density of 10^4 cells per well and incubated for 24 hours in 150 µL media at 37°C, 5%CO2. Cells were then treated with different concentrations of each compound, ranging from 0.107 to 110 µM in 200 µL DMEM for 72 hours at 37°C and 5%CO2. Cells treated with DMSO (v/v) with the highest concentration of solvent 0.14% were used as control.
After incubation, 40 µL of MTT reagent (solution 5 mg/mL in PBS) was added to each well, and cells were incubated for further 3 hours at 37°C and 5% CO2. The media were removed and 100 µL of DMSO was added in each well. Plates were agitated in a shaker for 10 minutes to dissolve precipitates. Absorbance was read at 570 nm in a FlexStation 3 (Molecular Devices). Six experiments were performed independently in triplicates.

[9] abbreviates: 72 h, parasitemia by flow cytometry, wild-type 3D7, read-out: IC50 3D7 strain (antimalarials).
The mark [10] stands for this setting: read-out: IC50 PfelK1^‐ strain (antimalarials).
Setting [11] is: 3D7, 72 h, read-out: IC50 (µM) 3D7 strain.
The mark [12] stands for this setting: read-out: IC50 (µM) PfelK1^‐ strain.

One may read the IC50 as the concentration that inhibits the measured activity by half.

“Also recorded” adds a separate entry of the source. Like-named read-outs stand apart in the source and are kept apart here.

Regarding `C[C@@H]1CC[C@H]2[C@@H](C)C(=O)O[C@@H]3O[C@@]4(C)CC[C@@H]1[C@]32OO4` [Artemisinin, reference compound], the IC50 in data set [1] (setting [9]) amounted to 0.0137 µM; in data set [2] (setting [10]) it was 0.0188 µM.

Consider `O=C1C(O)=C([C@H]2CC[C@H](c3ccc(Cl)cc3)CC2)C(=O)c2ccccc21` [Atovaquone, reference compound], for which the IC50 in data set [1] (setting [9]) was determined as 0.0004 µM; in data set [2] (setting [10]), 0.00047 µM.

Regarding `CCN(CC)CCCC(C)Nc1ccnc2cc(Cl)ccc12` (centres unmarked) [Chloroquine, reference compound], the IC50 in data set [1] (3D7, 72 h, read-out: IC50 3D7 strain (antimalarials)) was determined as 0.0099 µM.

On to `COc1ccc2[nH]cc(CCNS(=O)(=O)c3ccccc3)c2c1` [Melatobenz (9), N‐(2‐(5‐methoxy‐1H‐indol‐3‐yl)ethyl)benzenesulfonamide], for which the activity at 0.5 µM in data set [3] was determined as 102%; in data set [5] it was 100%. For the same molecule, the figures for the IC50 in data set [1] (setting [11]) and in data set [2] (setting [12]) were 38.5 ± 1.57 µM and 57.8 µM, respectively. Also, the “final parasitemia, compound along with melatonin” value (from here on “final parasitemia, compound along”) in data set [4] is listed as 105.0 ± 1.97%.

For `COc1ccc2[nH]cc(CCNC(=O)C3CCCCC3)c2c1` [Melatocicloexil (12), N‐(2‐(5‐methoxy‐1H‐indol‐3‐yl)ethyl)cyclohexanecarboxamide], the activity at 0.5 µM was determined as 104% in data set [3] and 98.3% in data set [5]. Moreover, the results for the IC50 in data set [1] (setting [11]) and in data set [2] (setting [12]) were 35.2 ± 4.14 µM and 47.6 ± 6.43 µM, respectively. In addition, in data set [4], the “final parasitemia, compound along” value was 107.0 ± 1.37%.

Regarding `COc1ccc2[nH]cc(CCNC(=O)c3ccco3)c2c1` [Melatofuroila (11), N‐(2‐(5‐methoxy‐1H‐indol‐3‐yl)ethyl)furan‐2‐carboxamide], the activity at 0.5 µM turned out to be 102% in data set [3] and 97.1% in data set [5]. Moreover, the figures for the IC50 in data set [1] (setting [11]) and in data set [2] (setting [12]) were 30.9 ± 4.92 µM and 31.9 ± 0.46 µM, respectively. Further, the “final parasitemia, compound along” value in data set [4] turned out to be 99.78 ± 2.03%.

For the molecule `COc1ccc2[nH]cc(CCNS(=O)(=O)c3ccc(C)cc3)c2c1` [Melatotosil (10), N‐(2‐(5‐methoxy‐1H‐indol‐3‐yl)ethyl)‐4‐methylbenzenesulfonamide], in data set [6], the “ability to abolish the increase in parasitemia triggered by melatonin” value (“ability to abolish the increase” below) is on record as “able to abolish”; the “decrease in parasitemia compared to treatment with the hormone only” value (shortened to “decrease in parasitemia”) was determined as 11.69%; the “parasitemia normalized to control, compound along with melatonin” value (“parasitemia normalized to control” for short) is reported as 98.07%. The “increase in parasitemia compared to control group” value in data set [3] was found to be 10%. Moreover, the “IC50 (µM) 3D7 strain” value in data set [1] (72 h, parasitemia by flow cytometry, wild-type 3D7) is reported as “without antimalarial activity; also recorded: No activity”. The cytosolic calcium rise result in data set [7] (PfGCaMP3) is “elicits a calcium rise”. Further, the “Fmax/F0 (maximum fluorescence normalized to baseline)” value in data set [7] (PfGCaMP3, 120 cells) came out at 1.21 ± 0.01. In data set [4], the “final parasitemia, compound along” value came to 106.2 ± 1.55%. Also, the “IC50 (µM) PfelK1^‐ strain” value in data set [2] (parasitemia by flow cytometry, PfeIK1 knockout) is on record as “No activity”. For the same molecule, in data set [5], the activity at 0.5 µM turned out to be 97.5%.

`O=S(=O)(NCCc1c[nH]c2ccccc12)c1ccccc1` [Tripbenz (4), N‐(2‐(1H‐indol‐3‐yl) ethyl)benzenesulfonamide]: the “toxicity in HEK293 cells” value in data set [8] is “no toxicity”. The results for the activity at 0.5 µM in data set [3] and in data set [5] were 100% and 95.6%, respectively. Also, the IC50 in data set [1] (setting [11]) was 18.7 ± 2.5 µM; in data set [2] (setting [12]), 36.8 ± 3.44 µM.

Regarding `O=C(NCCc1c[nH]c2ccccc12)C1CCCCC1` [Tripcicloexil (8), N‐(2‐(1H‐indol‐3‐yl)ethyl)cyclohexanecarboxamide], the “toxicity in HEK293 cells” value in data set [8] is “no toxicity”. Further, the activity at 0.5 µM is 102% in data set [3] and 101% in data set [5]. Besides, the results for the concentration for half-maximal inhibition (IC50) in data set [1] (setting [11]) and in data set [2] (setting [12]) were 28 ± 4.07 µM and 37.6 ± 2.72 µM, respectively. The “final parasitemia, compound along” value in data set [4] is given as 105.5 ± 0.91%.

For the molecule `O=C(NCCc1c[nH]c2ccccc12)c1ccco1` [Tripfuroila (7), N‐(2‐(1H‐indol‐3‐yl)ethyl)furan‐2‐carboxamide], in data set [6], the “ability to abolish the increase” value is “able to abolish”; the “decrease in parasitemia” value stood at 11.25%; the “parasitemia normalized to control” value stood at 98.52%. Moreover, the “toxicity in HEK293 cells” value in data set [8] is “no toxicity”. The activity at 0.5 µM in data set [3] turned out to be 101%. Further, the IC50 in data set [1] (setting [11]) was found to be 17.1 ± 2.6 µM. Further, the “final parasitemia, compound along” value in data set [4] was 102.3 ± 1.53%. The IC50 in data set [2] (setting [12]) turned out to be 23.6 ± 2.2 µM. In data set [5], the activity at 0.5 µM is 98.5%.

For the molecule `Cc1ccc(S(=O)(=O)NCCc2c[nH]c3ccccc23)cc1` [Triptosil (5), N‐(2‐(1H‐indol‐3‐yl)ethyl)‐4‐methylbenzenesulfonamide], in data set [6], the “ability to abolish the increase” value is “able to abolish”; the “decrease in parasitemia” value is on record as 9.7%; the “parasitemia normalized to control” value amounted to 100%. In data set [8], the “toxicity in HEK293 cells” value is “no toxicity”. The activity at 0.5 µM in data set [3] turned out to be 100%. Further, in data set [1] (setting [11]), the IC50 amounted to 19.8 ± 5.33 µM. Besides, the “final parasitemia, compound along” value in data set [4] turned out to be 105.4 ± 2.05%. Also, in data set [2] (setting [12]), the IC50 turned out to be 30.6 ± 1.55 µM. Further, the activity at 0.5 µM in data set [5] amounted to 99.3 ± 2.18%.
